Tests used:
K562 = assay: Cytotoxicity against human K562 cells after 72 hrs by CCK8 assay; format: functional, cell-based; conditions: K562, 72 h
A549 = assay: Cytotoxicity against human A549 cells after 72 hrs by CCK8 assay; format: functional, cell-based; conditions: A549, 72 h
[1] = tested on: Mycobacterium tuberculosis; assay: Antitubercular activity against Mycobacterium tuberculosis H37Ra incubated for 7 days by Alamar blue dye-based fluorometric assay; format: functional, organism-based; conditions: 168 h
Huh-7 = assay: Cytotoxicity against human HuH7 cells after 72 hrs by CCK8 assay; format: functional, cell-based; conditions: Huh-7, 72 h

| Structure (SMILES) | IC50 (K562) [µM] | IC50 (A549) [µM] | IC50 [1] [µM] | IC50 (Huh-7) [µM] |
| --- | --- | --- | --- | --- |
| C/C=C(\C)C(=O)O[C@@H]1[C@@H](C)[C@]2(O)[C@@H]3C=C(C)C(=O)[C@@H]3CC(CO)=C[C@H]2[C@@H]2C(C)(C)[C@]12OC(C)=O | 0.07 | 8.5 | 20.5 | 3.36 |
| CCC(C)C(=O)O[C@@]12[C@H](O)[C@@H](C)[C@@]3(O)[C@H]([C@@H]1C2(C)C)[C@@H](O)C(CO)=C[C@]1(O)C(=O)C(C)=C[C@@H]31 (some centres not stated) | 0.07 | 8.86 | > 30 | 11.6 |
| CCC(C)C(=O)O[C@@]12[C@H](O)[C@@H](C)[C@@]3(O)[C@@H](C=C(CO)C[C@]4(O)C(=O)C(C)=C[C@@H]34)[C@@H]1C2(C)C (some centres not stated) | 0.05 | 43.5 | > 30 | 34.2 |
| C/C=C(\C)C(=O)O[C@@H]1[C@@H](C)[C@]2(O)[C@@H]3C=C(C)C(=O)[C@@H]3CC(C=O)=C[C@H]2[C@@H]2C(C)(C)[C@]12OC(C)=O | 0.03 | 6.88 | 19.5 | 3.85 |
| C/C=C(\C)C(=O)O[C@@H]1[C@@H](C)[C@@]2(O)[C@@H](C(=O)C(CO)=C[C@]3(O)C(=O)C(C)=C[C@@H]23)[C@@H]2C(C)(C)[C@]12OC(=O)C(C)C | 0.05 | 3.11 | 13.4 | 4.41 |
| CCC(C)C(=O)O[C@@]12[C@H](O)[C@@H](C)[C@@]3(O)[C@@H](C(=O)C(CO)=C[C@]4(O)C(=O)C(C)=C[C@@H]34)[C@@H]1C2(C)C (some centres not stated) | 0.03 | 6.33 | 20.9 | 20.9 |
| NNC(=O)c1ccncc1 [ISONIAZID] | – | – | 2.04 | – |
| CC(=O)O[C@H]1C(=O)[C@@]2(C)[C@H]([C@H](OC(=O)c3ccccc3)[C@]3(O)C[C@H](OC(=O)[C@H](O)[C@@H](NC(=O)c4ccccc4)c4ccccc4)C(C)=C1C3(C)C)[C@]1(OC(C)=O)CO[C@@H]1C[C@@H]2O [PACLITAXEL] | 3.21 | 1.92 | – | 6.75 |
| CC1=C[C@H]2[C@@]3(O)[C@H](C)[C@@H](O)[C@]4(O)[C@H]([C@@H]3C=C(CO)C[C@]2(O)C1=O)C4(C)C [PHORBOL] | 0.1 | 15.3 | > 30 | 5.93 |

Reference: ChEMBL document CHEMBL4428113, “Antitubercular and cytotoxic tigliane-type diterpenoids from Croton tiglium” (Bioorg Med Chem Lett, 2016)
